Here are results for four compounds from article PMC9104438, “Application of a Fluorescence Anisotropy-Based Assay to Quantify Transglutaminase 2 Activity in Cell Lysates” (International Journal of Molecular Sciences, 2022).

Each structure is given as a SMILES string.

For one experiment, the target named is T1, TGase 2 in cell lysates (Homo sapiens, UniProt P21980).
T1 construct: endogenous in cells; host or cells: lysates of 30 cell lines (27 human, 3 mouse), e.g. HUVEC, A375
T1 sequence (P21980 2-687 limits assumed): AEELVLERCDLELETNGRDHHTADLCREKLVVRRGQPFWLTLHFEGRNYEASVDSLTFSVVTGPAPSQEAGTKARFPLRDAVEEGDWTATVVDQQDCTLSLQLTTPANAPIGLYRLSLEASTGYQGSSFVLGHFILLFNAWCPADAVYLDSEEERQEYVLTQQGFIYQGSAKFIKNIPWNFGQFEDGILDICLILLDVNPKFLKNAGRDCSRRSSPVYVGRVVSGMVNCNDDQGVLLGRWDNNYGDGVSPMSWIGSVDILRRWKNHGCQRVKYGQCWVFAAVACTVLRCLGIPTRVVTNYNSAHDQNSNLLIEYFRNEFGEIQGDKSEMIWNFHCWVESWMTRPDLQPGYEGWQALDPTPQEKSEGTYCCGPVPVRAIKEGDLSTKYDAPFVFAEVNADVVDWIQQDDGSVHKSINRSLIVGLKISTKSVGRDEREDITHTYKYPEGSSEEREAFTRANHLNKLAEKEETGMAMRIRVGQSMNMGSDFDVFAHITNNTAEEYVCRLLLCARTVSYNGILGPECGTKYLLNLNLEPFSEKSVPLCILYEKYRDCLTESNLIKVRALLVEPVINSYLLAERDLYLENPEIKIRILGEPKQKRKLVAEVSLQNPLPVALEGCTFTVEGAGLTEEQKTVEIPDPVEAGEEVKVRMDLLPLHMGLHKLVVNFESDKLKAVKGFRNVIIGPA
As to the kind of experiment: FA-based assay of TGase 2 activity in cell lysates, control with inhibitor. Format: biochemical, human and mouse. The following applies: 10 µM inhibitor, preincubation 10 min; DMC 30 µM, R-I-Cad 0.81 µM; all studied cell lines. The method, then: Lysis of cell pellets was performed as described recently. Accordingly, cell pellets were resuspended in 50 µL modified RIPA buffer A, incubated on ice for 30 min and applied to ultrasound (Bandelin Sonopuls, 2 × 15 s, 20% power at ambient temperature). Subsequently, cell lysates were incubated on ice for 10 min and were then spun for 15 min at 4 °C at 15,000× g. The supernatants were transferred into fresh tubes. The protein content was determined with a BCA protein assay (ThermoFisher, Waltham, MA, USA) according to the manufacturer’s protocol. Lysates were stored at −60 °C.

For experiment [1], the target named is T2, hTGase 2 (Homo sapiens, UniProt P21980).
T2 sequence (P21980 1-687): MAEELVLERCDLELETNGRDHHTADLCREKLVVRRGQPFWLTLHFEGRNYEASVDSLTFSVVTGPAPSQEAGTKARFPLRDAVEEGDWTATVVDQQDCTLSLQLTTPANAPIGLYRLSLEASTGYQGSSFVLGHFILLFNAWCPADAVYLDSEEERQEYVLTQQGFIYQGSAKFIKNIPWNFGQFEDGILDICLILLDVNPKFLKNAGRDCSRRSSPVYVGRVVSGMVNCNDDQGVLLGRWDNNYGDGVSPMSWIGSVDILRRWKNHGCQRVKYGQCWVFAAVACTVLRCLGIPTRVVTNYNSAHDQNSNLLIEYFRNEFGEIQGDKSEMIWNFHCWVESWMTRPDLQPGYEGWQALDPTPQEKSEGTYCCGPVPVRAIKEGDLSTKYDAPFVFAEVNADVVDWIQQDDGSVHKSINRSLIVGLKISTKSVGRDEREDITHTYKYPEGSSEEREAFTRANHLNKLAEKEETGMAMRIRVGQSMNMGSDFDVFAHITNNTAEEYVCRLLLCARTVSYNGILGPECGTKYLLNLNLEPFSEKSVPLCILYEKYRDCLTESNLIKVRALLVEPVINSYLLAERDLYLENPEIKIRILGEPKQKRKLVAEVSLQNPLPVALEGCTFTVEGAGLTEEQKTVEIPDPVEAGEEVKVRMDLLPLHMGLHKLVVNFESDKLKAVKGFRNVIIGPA
On the set-up: purchased Zedira T022; method as in PMID 29664627. As to conditions: fluorimetric activity assay; mean (SEM); cited from earlier work.

The next experiment addresses T3, hTGase 6 (Homo sapiens, UniProt O95932).
T3 sequence (O95932 1-706): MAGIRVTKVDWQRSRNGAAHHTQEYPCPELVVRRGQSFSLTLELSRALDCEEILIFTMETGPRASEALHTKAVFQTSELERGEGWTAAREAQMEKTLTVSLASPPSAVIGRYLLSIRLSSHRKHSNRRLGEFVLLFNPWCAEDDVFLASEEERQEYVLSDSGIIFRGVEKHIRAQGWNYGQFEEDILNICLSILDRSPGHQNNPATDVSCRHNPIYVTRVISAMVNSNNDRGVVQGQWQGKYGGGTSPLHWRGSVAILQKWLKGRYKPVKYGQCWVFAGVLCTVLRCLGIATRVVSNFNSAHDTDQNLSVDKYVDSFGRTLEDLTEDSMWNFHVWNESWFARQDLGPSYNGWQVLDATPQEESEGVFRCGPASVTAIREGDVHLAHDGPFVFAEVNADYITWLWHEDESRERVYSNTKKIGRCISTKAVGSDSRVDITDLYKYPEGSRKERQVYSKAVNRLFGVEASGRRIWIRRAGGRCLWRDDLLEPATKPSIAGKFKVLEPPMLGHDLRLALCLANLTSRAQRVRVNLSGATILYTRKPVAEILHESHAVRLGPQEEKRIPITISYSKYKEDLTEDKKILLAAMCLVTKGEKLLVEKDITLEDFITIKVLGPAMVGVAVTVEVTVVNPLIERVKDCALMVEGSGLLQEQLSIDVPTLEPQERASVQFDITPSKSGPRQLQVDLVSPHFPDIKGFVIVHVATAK
As to the kind of experiment: FA-based assay, characterization of irreversible inhibitors.

In experiment [2] the target is T2, hTGase 2. As to the kind of experiment: Fluorimetric activity assay (substrate Z-Glu(HMC)-Gly-OH). As to conditions: mean (SEM) of 2 experiments. Type of experiment: biochemical. Details: purchased Zedira T022. The method, then: The kinetic characterization of compounds 3 and 4 by means of their kinact/KI values was performed using a fluorimetric activity assay (substrate Z-Glu(HMC)-Gly-OH) as described recently.

As a reminder, the IC50 is the concentration at which inhibition is half-maximal. Consider `C=CC(=O)NCCCC[C@H](NC(=O)Cc1ccccc1)C(=O)N1CCN(c2cccc(C)n2)CC1` [Compound 1], for which the “FA increase over time in cell lysates in the presence of inhibitor” value on TGase 2 in cell lysates is listed as “below the detection limit”. Besides, at hTGase 2 [1], the “kinact/KI hTGase 2” value was 4880 (20)^c M^−1s^−1. Further, on hTGase 6, the half-inhibitory concentration (IC50) was > 30 µM.

`C=CC(=O)NCCCC[C@H](NC(=O)Cc1ccccc1)C(=O)N1CCN(c2ccc([N+](=O)[O-])nc2)CC1` [Compound 2]: the “kinact/KI hTGase 2” value on hTGase 2 [1] is 8460 (710) ^c M^−1s^−1. This compound displayed an IC50 against hTGase 6 of 19.5 µM.

As a reminder, the kinact/KI is the maximal inactivation rate divided by the concentration that gives half of it. For `C#Cc1cccc(N2CCN(C(=O)[C@H](CCCCNC(=O)C=C)NC(=O)Cc3ccccc3)CC2)n1` [Compound 3, N^α-Phenylacetyl-N^ε-acryloyl-L-lysine-4-(6-ethinylpyridin-2-yl)piperazide], on hTGase 2 [2], the kinact/KI turned out to be 3450 M⁻¹ s⁻¹. For the same compound, the IC50 at hTGase 6 was 38.4 µM.

With `C=CC(=O)NCCCC[C@H](NC(=O)Cc1ccccc1)C(=O)N1CCN(c2cccc(-c3cn(CCOCCOCCOCCNC(=O)CCCC[C@@H]4SC[C@@H]5NC(=O)N[C@@H]54)nn3)n2)CC1` [Compound 4, N-(2-(2-(2-(2-(4-(6-(4-(N^6-acryloyl-N^2-(2-phenylacetyl)-L-lysyl)piperazin-1-yl)pyridin-2-yl)-1H-1,2,3-triazol-1-yl)ethoxy)ethoxy)ethoxy)ethyl)-5-((3aS,4S,6aR)-2-oxohexahydro-1H-thieno[3,4-d]imidazol-4-yl)pentanamide], the kinact/KI at hTGase 2 [2] was 7260 M⁻¹ s⁻¹. On hTGase 6, half-maximal inhibition (IC50) required 21.8 µM.
